Reference: patent publication US12435061B2 (priority 2020, dated 2025)
≈ marks a conversion by molar mass, not a printed value. Where “and” joins values, the source holds several entries; their conditions need not be identical. Equal values may be shown once. Read-outs that look alike come from different tables or passages of the source.

Key:
[1] = Aqueous solubility assay in Normal Ringer Solution; conditions: Normal Ringer Solution, saline or isotonic, kinetic from dmso stock
Method: Following vortex and incubation for a sufficient time (e.g. 40 minutes at room temperature), solutions were filtered, quenched with acetonitrile, and analyzed by Liquid Chromotography. Solubility Limits were determined by comparison to a standard curve.

[2] = Metabolic Stability assay, human liver microsomes; format: in vitro ADME
Method: Metabolic Stability assay: The metabolic stability was determined by adding compound dissolved in DMSO to human or rat, liver microsomes. Briefly, assays were run with a starting concentration of 1 μM test article. The reaction was started by addition of NADPH regeneration components at 37° C. at which time an aliquot was immediately quenched in ice-cold acetonitrile/MeOH/H2O solution. Reaction mixture was incubated at 37° C. on a shaker, and additional aliquots were taken at 7, 15, 30 and 60 minutes. Following quench and centrifugation, samples were analyzed on HPLC/MS/MS.

hTRPV3 [3] = molecular target: T1, hTRPV3 (Homo sapiens (Human), UniProt Q8NET8); assay: hTRPV3 HAMA IC50 assay (Hamamatsu FDSS6000 calcium flux, TRex-293 cells); conditions: 5 min
T1 sequence (Q8NET8 whole entry): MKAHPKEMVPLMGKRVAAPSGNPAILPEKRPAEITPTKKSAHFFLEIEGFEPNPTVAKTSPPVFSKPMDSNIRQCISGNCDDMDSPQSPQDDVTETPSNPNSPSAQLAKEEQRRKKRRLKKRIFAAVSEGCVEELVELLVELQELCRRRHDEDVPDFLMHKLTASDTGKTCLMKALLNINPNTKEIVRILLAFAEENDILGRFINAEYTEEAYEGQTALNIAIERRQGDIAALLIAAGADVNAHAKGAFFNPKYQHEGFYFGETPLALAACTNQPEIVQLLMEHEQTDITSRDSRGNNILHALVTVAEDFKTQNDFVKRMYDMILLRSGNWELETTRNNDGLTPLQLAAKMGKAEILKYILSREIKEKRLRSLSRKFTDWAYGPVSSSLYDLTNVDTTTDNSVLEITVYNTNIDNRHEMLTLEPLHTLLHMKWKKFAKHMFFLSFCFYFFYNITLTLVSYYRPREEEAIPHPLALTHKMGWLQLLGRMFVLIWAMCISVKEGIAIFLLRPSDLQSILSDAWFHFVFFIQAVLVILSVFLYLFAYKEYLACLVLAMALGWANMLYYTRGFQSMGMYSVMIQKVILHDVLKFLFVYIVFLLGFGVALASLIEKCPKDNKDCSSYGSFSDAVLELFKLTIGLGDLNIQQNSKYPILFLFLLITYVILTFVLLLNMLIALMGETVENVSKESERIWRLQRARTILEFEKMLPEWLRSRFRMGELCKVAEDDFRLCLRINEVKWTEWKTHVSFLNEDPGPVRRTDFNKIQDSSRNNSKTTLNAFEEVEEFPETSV
Method: IC50s were calculated using CBIS from ChemInnovation (San Diego).

[4] = Metabolic Stability assay, rat liver microsomes; format: in vitro ADME
In short: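 Test article at 1 μM starting concentration incubated with human or rat liver microsomes at 37 °C, with the reaction started by NADPH regeneration components. Aliquots were quenched in cold acetonitrile/MeOH/H2O at 0, 7, 15, 30 and 60 min and analysed by HPLC/MS/MS.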

hTRPV3 [5] = molecular target: T1, hTRPV3; assay: Whole-cell patch clamp, hTRPV3 Phase 1 / Phase 2 currents; format: cell-based
In short: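 Whole-cell recordings on induced TRPV3 cells replated on coverslips, held at −40 mV with 400 ms ramps from −120 to +100 mV every 5 s; currents read at −80 and +80 mV. Ringer's external solution; current activated by heating to ≥28 °C or 20 μM 2-APB.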

human hERG channels = human hERG channels (Homo sapiens (Human), UniProt Q12809); assay: hERG assay (patch clamp, CHO cells); format: cell-based
Sequence of human hERG channels (Q12809 whole entry): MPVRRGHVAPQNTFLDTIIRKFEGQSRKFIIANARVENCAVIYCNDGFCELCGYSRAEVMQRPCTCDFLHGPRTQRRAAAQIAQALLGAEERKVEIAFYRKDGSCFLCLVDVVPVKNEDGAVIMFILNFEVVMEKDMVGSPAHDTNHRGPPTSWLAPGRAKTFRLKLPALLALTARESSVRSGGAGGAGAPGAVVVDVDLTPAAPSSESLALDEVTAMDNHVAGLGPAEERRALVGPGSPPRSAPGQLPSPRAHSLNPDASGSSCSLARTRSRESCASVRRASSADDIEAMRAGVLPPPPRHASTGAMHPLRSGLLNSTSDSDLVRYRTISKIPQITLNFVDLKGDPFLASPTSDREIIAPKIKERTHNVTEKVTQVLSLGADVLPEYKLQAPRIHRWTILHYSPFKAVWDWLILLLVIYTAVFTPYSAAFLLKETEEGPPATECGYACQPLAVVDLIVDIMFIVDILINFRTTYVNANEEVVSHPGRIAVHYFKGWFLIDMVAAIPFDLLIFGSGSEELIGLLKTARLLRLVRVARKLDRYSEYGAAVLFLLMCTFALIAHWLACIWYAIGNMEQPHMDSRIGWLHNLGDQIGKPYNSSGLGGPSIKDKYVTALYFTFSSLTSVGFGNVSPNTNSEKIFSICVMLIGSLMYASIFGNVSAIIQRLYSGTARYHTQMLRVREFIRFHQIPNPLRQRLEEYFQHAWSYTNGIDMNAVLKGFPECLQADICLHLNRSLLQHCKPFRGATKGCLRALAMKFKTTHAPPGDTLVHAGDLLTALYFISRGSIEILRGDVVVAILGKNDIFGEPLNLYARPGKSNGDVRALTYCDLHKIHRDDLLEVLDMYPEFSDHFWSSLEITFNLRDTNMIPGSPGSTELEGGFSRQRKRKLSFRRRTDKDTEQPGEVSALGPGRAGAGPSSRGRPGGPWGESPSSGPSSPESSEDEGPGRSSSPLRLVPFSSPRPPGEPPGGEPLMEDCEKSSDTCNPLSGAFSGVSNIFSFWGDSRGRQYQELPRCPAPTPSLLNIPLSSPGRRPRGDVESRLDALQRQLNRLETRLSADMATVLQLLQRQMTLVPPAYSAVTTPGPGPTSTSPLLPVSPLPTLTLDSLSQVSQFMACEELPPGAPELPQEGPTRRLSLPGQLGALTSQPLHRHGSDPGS
Method: hERG assay: Briefly, cells from a stable CHO cell line expressing human hERG channels were plated onto glass coverslips and used in patch clamp assays on the same day. After seal formation and break-in to whole-cell configuration, voltage steps were applied as follows: from the holding potential of −90 mV, a 2 second long step to +40 mV was applied, followed by a 1.5 second step to −50 mV. These steps were applied once every 5 seconds. The hERG current was measured at the peak of the outward tail current at −50 mV. The pipette solution was potassium aspartate based and the external solution was normal Ringer's.
All currents were recorded in whole-cell configuration using an Axopatch 200B controlled by pClamp 10 software (Molecular Devices). In each cell, when the current stabilized, the compound was perfused locally onto the cell. Two to three concentrations of the test compound were applied to each cell. At the end of compound testing, 10 μM verapamil was applied to completely block hERG currents and assess leak current.
Data were analyzed by computing the degree of current block after compound addition compared with the unblocked current amplitude. The unblocked current was predicted from the interpolation between the current amplitude prior to compound addition and after compound washout. The resulting percent block at each concentration was used to make a concentration-response plot and fitted to the Hill equation: percent block=minimum block+(maximum block-minimum block)/(1+10^(Hill slope*(log IC50−concentration))).

rat (r) TRPV3 = rat (r) TRPV3 (Rattus norvegicus, UniProt E9PU00); assay: Whole-cell patch clamp, rTRPV3 Phase 1 / Phase 2 currents; format: cell-based
Sequence of rat (r) TRPV3 (E9PU00 1-791): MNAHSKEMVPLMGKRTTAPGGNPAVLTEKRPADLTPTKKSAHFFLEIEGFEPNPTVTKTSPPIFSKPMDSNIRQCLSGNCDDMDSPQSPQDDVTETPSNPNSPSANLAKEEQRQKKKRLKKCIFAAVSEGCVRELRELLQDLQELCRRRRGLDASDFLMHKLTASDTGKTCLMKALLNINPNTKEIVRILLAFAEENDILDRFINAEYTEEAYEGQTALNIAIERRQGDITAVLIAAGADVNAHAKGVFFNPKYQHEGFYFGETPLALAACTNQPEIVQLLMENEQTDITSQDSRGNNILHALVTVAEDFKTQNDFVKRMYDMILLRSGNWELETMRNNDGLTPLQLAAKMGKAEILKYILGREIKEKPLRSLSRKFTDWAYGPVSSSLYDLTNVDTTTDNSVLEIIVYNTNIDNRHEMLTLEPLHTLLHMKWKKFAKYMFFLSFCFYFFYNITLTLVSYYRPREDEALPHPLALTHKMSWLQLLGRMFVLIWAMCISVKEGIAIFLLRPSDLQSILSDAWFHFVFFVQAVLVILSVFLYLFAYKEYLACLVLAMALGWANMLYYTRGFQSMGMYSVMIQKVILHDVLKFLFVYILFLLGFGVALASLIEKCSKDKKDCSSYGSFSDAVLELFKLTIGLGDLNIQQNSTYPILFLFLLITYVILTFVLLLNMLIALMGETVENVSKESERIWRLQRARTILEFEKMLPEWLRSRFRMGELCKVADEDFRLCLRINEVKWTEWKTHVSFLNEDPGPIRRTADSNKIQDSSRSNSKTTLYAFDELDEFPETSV
Source text: Whole-cell patch clamp experiments permit the detection of currents through the TRPV3 channel in the cell line described above. A glass electrode is brought into contact with a single cell and the membrane is then ruptured, permitting control of the voltage of the cell membrane and measurement of currents flowing across the membrane using the amplifier attached to the electrode. A perfusion system permits control of the extracellular solution, including the addition of blockers and activators of the current. The current can be activated by heating this solution to 28° C. or warmer or by addition of 20 μM 2-APB to the solution.
TRPV3 cells were induced 20-48 hours, removed from growth plates, and replated at low density (to attain good single-cell physical separation) on glass coverslips for measurement. In some cases, cells were grown in low density overnight on glass coverslips. Patch clamp recordings were made in the whole-cell mode with a holding potential of −40 mV. Every 5 seconds, a voltage ramp was applied from −120 to +100 mV, 400 ms in duration. Currents elicited were quantified at −80 mV and +80 mV. The internal solution consisted of 140 mM cesium aspartate, 10 mM EGTA, 2.27 mM MgCl2, 1.91 mM CaCl2) and 10 mM HEPES, pH to 7.2 with KOH; with 50 nM calculated free […]. External solution was Ringer's solution described above. Upon addition of 2-APB or upon heating of the extraceullar solution as described above, TRPV3 current was induced only in TRPV3-expressing cells and not in parental HEK293 TREx cells. […] Removal of the stimulus caused most of the current to go away, and inhibitor addition could still inhibit this current.
In Tables 3 and 4, Phase 1 refers to Phase 1 current for human (h) TRPV3 or rat (r) TRPV3, and Phase 2 refers to Phase 2 current for human (h) TRPV3 or rat (r) TRPV3. The hTRPV3 and rTRPV3 assays were performed as described herein. hERG refers to the inhibition the human ERG (hERG) channel. NaV1.5, refers to the pore forming aL-subunit of the voltage-dependent cardiac Na(+) channel and is an integral membrane protein involved in the initiation and conduction of action potentials. hTRPV3 HAMA IC50 refers to the IC50 of TRPV3 cells stably expressed in TRex-293 cells. Solubility Ringer refers to the compounds' solubility in Ringer's solution. LM T1/2 refers to liver microsome half-lives in either rat or human liver microsomes. FLIPR IC50 refers to the IC50 of the test compounds against recombinant hTRPV3 cells.

[6] = system: male C57BL/6J mice, AEW induced pruritus; assay: Acetone-ether-water (AEW) induced pruritus model in mice; conditions: HC-030031 4 mg/mouse SC 5 min before recording; P=0.0005 vs Vehicle2
[7] = system: DS-Nh mice (TRPV3 Gly573Ser gain-of-function mutation); assay: Efficacy of KM-001 in DS-Nh mouse model (skin histology, dermatitis scoring); conditions: topical ointment on cheek, Day 14, KM-001 1% and 0.3%, Tacrolimus 0.1%
Method: Mice were identified by left ear punch. […] On Day −30, −23, −20, −14, −9, −2, 0, 3, 7, 10, 14, erythema and edema of the mice face have been scored on the right and left sides according to criteria in table 21 (Dermatitis scoring criteria).
The viability, clinical signs and behavior were monitored daily. Body weight was recorded daily. […] Mice were monitored just and 7 hours after administration. Animals in all groups were sacrificed at Day 14 by exsanguination through abdominal vena cava under isoflurane.
For skin samples, the skin at the inflammation site from both cheeks of the face were collected. For histological analyses, the skin was fixed in 4% paraformaldehyde for 24 hours. After fixation, these specimens were processed to paraffin embedding for H&E staining, MT staining and immunohistochemistry and toluidine blue staining.
Skin sections taken from facial treated area of each mouse are fixed in paraffin and stained with Hematoxylin & Eosin.

[8] = Phase 1 current, inward, whole-cell patch clamp, read-out: hTRPV3 Patch P1 Inwd
[9] = Phase 1 current, human TRPV3, read-out: hTRPV3 (nM) Phase 1

SMILES	solubility at 40 min [1]	IC50 (hTRPV3 [5]; [8])	half-life at 1 μM ([2]; read-out: LM T1/2 (min) human)	IC50 (human hERG channels; (PL), read-out: hERG (nM) (PL))	half-life at 1 μM ([4]; read-out: LM T1/2 (min) rat)	IC50 (hTRPV3 [5]; [9])	other results
NC(=O)c1cc(C(F)(F)F)ccc1N1CC[C@H](Oc2ccc(C(F)(F)F)cn2)C1 [Compound 1-58, (S)-5-(trifluoromethyl)-2-(3-(5-(trifluoromethyl)pyridin-2-yloxy)pyrrolidin-1-yl)benzamide]	> 11.3 µM	–	–	–	–	–	half-life at 1 μM ([2]; read-out: LM T1/2 (min) (human)): > 60 min; hTRPV3 HAMA IC50 (nM) (5 min) (hTRPV3 [3]): no fit (5 min); half-life at 1 μM ([4]; read-out: LM T1/2 (min) (rat)): > 60 min; IC50 (hTRPV3 [5]; hTRPV3 (nM) (Phase 1)): 1250 nM and 1520 nM and > 3200 nM; IC50 (hTRPV3 [5]; hTRPV3 Patch P2 Inwd (nM)): 100 to 1000 nM; IC50 (hTRPV3 [5]; read-out: hTRPV3 (nM) (Phase 1)): 1040 nM; IC50 (hTRPV3 [5]; read-out: hTRPV3 (nM) (Phase 2)): 241 nM
OCc1cc([C@@H](O)c2ccccc2Cl)ccc1N1CC[C@H](Oc2ncccc2F)C1 [Compound 1-321, (2-chlorophenyl)(4-((S)-3-(3-fluoropyridin-2-yloxy)pyrrolidin-1-yl)-3-(hydroxymethyl)phenyl)methanol]	> 9.8 µM	10 to 100 nM	–	–	–	–	IC50 (human hERG channels; (PL), read-out: hERG): ~3.73e-06 M; IC50 (rat (r) TRPV3; Phase 1 current, read-out: rTRPV3 (nM) (Phase 1)): 5.37 nM; IC50 (rat (r) TRPV3; rTRPV3 (nM) (Phase 2), Phase 2 current): ~15.7 nM; half-life at 1 μM ([4]; read-out: LM T1/2 (min) (rat)): 16.9 min; IC50 (hTRPV3 [5]; Phase 1 current, read-out: hTRPV3 (nM) (Phase 1)): 12.2 nM; hTRPV3 (nM) (Phase 2) (hTRPV3 [5]; Phase 2 current): Incomplete Block; IC50 (hTRPV3 [5]; Phase 2 current, read-out: hTRPV3 (nM) (Phase 2)): ~30 nM and ~44 nM
CC(C)c1ccccc1-c1ccc(C2CCN(C(=O)c3ccc(F)cn3)C2)c(CO)c1 (stereo not drawn) [Compound 2-29, (5-fluoropyridin-2-yl)(3-(3-(hydroxymethyl)-2′-isopropylbiphenyl-4-yl)pyrrolidin-1-yl)methanone]	> 16.6 µM	< 10 nM	8.8 min	7.48e-06 M	16.8 min	6.03 nM	IC50 (human hERG channels; (M), read-out: hERG): 7.38e-06 M; IC50 (rat (r) TRPV3; rTRPV3 (nM) Phase 1, Phase 1 current, rat TRPV3): 5.56 nM
CC(C)c1ccccc1-c1ccc(C2CCN(C(=O)c3cc(Cl)ccn3)C2)c(CO)c1 (stereo not drawn) [Compound 2-49, (4-chloropyridin-2-yl)(3-(3-(hydroxymethyl)-2′-isopropylbiphenyl-4-yl)pyrrolidin-1-yl)methanone]	> 12.8 µM	10 to 100 nM	12.2 min	6.97e-06 M	20.6 min	25.7 nM	–
CCc1ccccc1-c1ccc(C2CCN(C(=O)c3ncccc3Cl)C2)c(CO)c1 (stereo not drawn) [Compound 2-52, (3-chloropyridin-2-yl)(3-(2′-ethyl-3-(hydroxymethyl)biphenyl-4-yl)pyrrolidin-1-yl) methanone]	> 17.8 µM	10 to 100 nM	14.4 min	–	9.2 min	67.3 nM	–
CCc1ccccc1-c1ccc(C2CCN(C(=O)c3cccc(Cl)n3)C2)c(CO)c1 (stereo not drawn) [Compound 2-53, (6-chloropyridin-2-yl)(3-(2′-ethyl-3-(hydroxymethyl)biphenyl-4-yl)pyrrolidin-1-yl) methanone]	~7.7 µM (≈ 3.24 µg/mL)	< 10 nM	24.9 min	–	12.3 min	8.39 nM	–
O=C(c1ccc(Cl)cn1)N1CCC(c2ccc(-c3ccccc3C3CC3)cc2CO)C1 (stereo not drawn) [Compound 2-56]	~5.1 µM (≈ 2.21 µg/mL)	< 10 nM	24.6 min	7.29e-06 M	–	2.04 nM	–
O=C(c1ccc(C(F)(F)F)cn1)N1CCC(c2ccc(-c3ccccc3C3CC3)cc2CO)C1 (stereo not drawn) [Compound 2-58, (3-(2′-cyclopropyl-3-(hydroxymethyl)biphenyl-4-yl)pyrrolidin-1-yl)(5-(trifluoromethyl)pyridin-2-yl)methanone]	~5.2 µM (≈ 2.43 µg/mL)	10 to 100 nM	54.6 min	1.5e-05 M	47.9 min	27.3 nM	–
CCc1cc(C)ccc1-c1ccc(C2CCN(C(=O)c3ccc(F)cn3)C2)c(CO)c1 (stereo not drawn) [Compound 2-62, (3-(2′-ethyl-3-(hydroxymethyl)-4′-methylbiphenyl-4-yl)pyrrolidin-1-yl)(5-fluoropyridin-2-yl)methanone]	> 12.1 µM	10 to 100 nM	14.9 min	1.77e-05 M	14 min	64.9 nM	–
O=C(c1ccc(F)cn1)N1CCC(c2ccc(-c3ccccc3C3CC3)cc2CO)C1 (stereo not drawn) [Compound 2-72, (3-(2′-cyclopropyl-3-(hydroxymethyl)biphenyl-4-yl)pyrrolidin-1-yl)(5-fluoropyridin-2-yl)methanone]	~25.5 µM (≈ 10.6 µg/mL)	–	17.5 min	8.46e-06 M	31.3 min	–	IC50 (human hERG channels; (M), read-out: hERG): 9.24e-06 M
CC(C)c1ccc(NC(=O)Cn2cnc3c2c(=O)n(C)c(=O)n3C)cc1 [HC-030031]	–	–	–	–	–	–	scratching bouts [6]: significantly decreased; scratching time [6]: significantly decreased
C=CC[C@@H]1/C=C(\C)C[C@H](C)C[C@H](OC)[C@H]2O[C@@](O)(C(=O)C(=O)N3CCCC[C@H]3C(=O)O[C@H](/C(C)=C/[C@@H]3CC[C@@H](O)[C@H](OC)C3)[C@H](C)[C@@H](O)CC1=O)[C@H](C)C[C@@H]2OC [Tacrolimus, reference compound]	–	–	–	–	–	–	Skin pathology (H&E histology: epidermis, inflammation) [7]: only slightly improved skin pathology
